The values that follow come from US20160375016A1, “METHODS FOR REDUCING ANXIETY AND IMPULSIVITY IN SUBJECTS INITIATING TREATMENT WITH SEROTONIN REUPTAKE INHIBITORS” (THE JOHNS HOPKINS UNIVERSITY, priority 2013, published 2016).

For data set [1] the following is noted: cited from earlier work.
Another data set has as its system C57BL/6 mice. Briefly: Elevated plus maze after acute drug administration. The class given is in vivo, mouse. Particulars: for anxiety in the elevated plus maze compared to Control mice: FIG. 1A legend, result in words; for time spent in the open arm of the elevated plus maze: reboxetine specificity experiment, FIG. 1D, saline 12.3±3.2, n=8 mice per group. The protocol: Animals and Housing. 7-8 week old male C57BL/6 mice were obtained from the National Cancer Institute (Frederick, Md.) and housed in the Broadway Research Building Johns Hopkins animal facility. Housing and behavioral testing rooms were temperature controlled with a 12 h light/dark cycle, and all behavioral tests were conducted during the light cycle. Animal protocols were approved by the Johns Hopkins University School of Medicine Animal Care and Use Committee.
Drug administration. […]
Elevated Plus Maze. Mice (n=10) were tested on the elevated plus maze in an isolated behavior suite. Mice were placed in the center of the maze and given 5 minutes to freely explore the maze. Time spent in open and closed arms of the maze were tracked using ANY-maze software (Stoelting, Wood Dale, Ill.).
Statistical Analyses. Statistical analyses were completed using GraphPad Prism 5.0 (La Jolla, Calif.). Comparisons between groups in the animal studies were made with one-way ANOVA, and P values <0.05 were considered statistically significant. The Johns Hopkins Institute for Clinical and Translational Research Biostatistics Center provided statistical support.

Where [2] appears, read: assumed from literature for one-compartment model.

Each structure is given as a SMILES string. Where two headings read alike, the source gives them in different places.

By Tmax is commonly meant the time from dosing to the highest level. For `CN(C)CCCC1(c2ccc(F)cc2)OCc2cc(C#N)ccc21` (centres unmarked) [citalopram], in data set [1] (setting [2]), the Tmax is 4 h, the “V (apparent volume of distribution)” value is 840 L and the t1/2 is 35 h.
On to `COc1ccccc1N1CCN(CCN(C(=O)C2CCCCC2)c2ccccn2)CC1` [WAY-100635], for which the “anxiety in the elevated plus maze compared to Control mice” value with C57BL/6 mice is “no effect”. In addition, in the data set on C57BL/6 mice (FIG. 1D legend), the “reversal of anxiety when co-administered with the SNRI reboxetine” value was “does not reverse anxiety” and the “reversal of anxiety when coadministered with the SSRI fluoxetine” value is reported as “reverses anxiety”. Besides, the “time spent in the open arms of the elevated plus maze” value in the data set with C57BL/6 mice (acute treatment 40 minutes before testing, fluoxetine 20 mg/kg, WAY-100635 0.3 mg/kg, FIG. 1A, Control 20.03±10.12) is 20.82 ± 15.18 s.
For the compound `CCOc1ccccc1OC(c1ccccc1)C1CNCCO1` (centres unmarked) [reboxetine], in the data set on C57BL/6 mice, the “time spent in the open arm of the elevated plus maze” value is 10.6 ± 10.8 s.
On to `CN[C@H]1CC[C@@H](c2ccc(Cl)c(Cl)c2)c2ccccc21` [sertraline], for which, in data set [1] (setting [2]), the Tmax is 6.5 h, the “V (apparent volume of distribution)” value is given as 1400 L and the t1/2 is 26 h.
In general, Cmax refers to the highest concentration seen after dosing. In the case of `Fc1ccc([C@@H]2CCNC[C@H]2COc2ccc3c(c2)OCO3)cc1` [paroxetine], in data set [1] (after a single 30 mg dose), the Cmax is 17.6 ng/mL, the Tmax is 6.3 h and the t1/2 was 16 h.
Take `CNCCC(Oc1ccc(C(F)(F)F)cc1)c1ccccc1` (centres unmarked) [fluoxetine]: in the data set on C57BL/6 mice, the “anxiety in the elevated plus maze compared to Control mice” value is given as “more anxious” and the “time spent in the open arm of the elevated plus maze” value turned out to be 4.0 ± 4.5 s. Moreover, the “less time in the open arms compared to Control mice” value in the data set on C57BL/6 mice (acute fluoxetine 20 mg/kg vs saline) is recorded as 72%. For the same compound, the “trough concentration at steady-state” value in data set [1] (Prozac Full Prescribing Information) was 72 to 258 ng/mL. In data set [1] (single 40-mg dose of Prozac), the “half-life (t1/2)” value is 48 h and the “peak drug concentration (Cmax)” value is recorded as 35 ng/mL.
With `COc1ccc(C(CN(C)C)C2(O)CCCCC2)cc1` (centres unmarked) [venlafaxine], in data set [1] (setting [2]), the Tmax is 8 h, the “V (apparent volume of distribution)” value is reported as 426 L and the t1/2 is 16.9 h.
With `COCCCC/C(=N\OCCN)c1ccc(C(F)(F)F)cc1` [fluvoxamine], in data set [1] (after a single 50 mg dose), the Cmax was 30 ng/mL, the Tmax is 6 h and the t1/2 is 19 h.
